This is an account of results in patent US8871778B2, “Substituted pyrimidine compounds and their use as SYK inhibitors” (Genosco, priority 2012, dated 2014).

Assay [1] has as its system THP-1 cells. Nature of the assay: SYK-dependent TNF-α release assay (IgG stimulation), ELISA. To be noted: for IC50: human IgG-coated plate, 18 hours, SYK-dependent pathway, read-out: TNF-α release inhibition, IgG stimulation (IC50 nM). Type of assay: cell-based, human. (In general: ELISA stands for enzyme-linked immunosorbent assay.)
Procedure: For SYK-dependent TNF-α release assay (i.e., via IgG stimulation), THP-1 cells derived from human monocytic cells were obtained from the American Type Culture Collection (ATCC, Manassas, Va.). This cell line was maintained with a Roswell Park Memorial Institute (RPMI) medium (GIBCO) containing 10% fetal bovine serum (FBS; GIBCO) and 0.05 mM solution of 2-mercaptoethanol. The THP-1 cells were seeded at 1×10^5 cells/100 μL/well into human IgG (10 ng/well, INVITROGEN)-coated 96 well culture plate, and serially diluted compound was then added. After an 18 hours of incubation period at 37° C., supernatants were collected for the determination of the TNF-α level by enzyme-linked immunosorbent assay (ELISA), and the remaining cells were subjected to an MTT (yellow tetrazolium salt) assay to determine the cytotoxic effects of the compound. The IC50 value of the test compound was calculated at Gradpad Prism 5 unless otherwise specified.
Assay [2] deals with THP-1 cells. Nature of the assay: SYK-independent TNF-α release assay (lipopolysaccharide stimulation), ELISA. The class given is cell-based, human. Particulars: SYK-independent pathway; for IC50: LPS, 18 hours, read-out: TNF-α release inhibition, LPS stimulation (IC50 nM).
Procedure: For SYK-independent TNF-α release assay, THP-1 cells were seeded at 1×10^5 cells/100 μL/well into 96 well culture plate, and serially diluted compound solution was added following lipopolysaccharide stimulation. After an 18-hour incubation period at 37° C., supernatants were collected for the determination of the TNF-α level by enzyme-linked immunosorbent assay (ELISA), and the remaining cells were subjected to an MTT (yellow tetrazolium salt) assay to determine the cytotoxic effects of compound. The IC50 value of test compound was calculated at Gradpad Prism 5 unless otherwise specified.
The test system of assay [3] is CIA mouse model (DBA/1J mice). Nature of the assay: Collagen-induced arthritis (CIA) mouse model, macroscopic scoring of paws. The class given is in vivo. Particulars: for Inhibition in arthritis phenotype indicated by CIA compared with R788 (in words): mouse, in vivo; for CIA index (arthritic score of test group / vehicle group x 100): 30 mg/kg/day oral gavage once daily, DBA/1J mice.
Procedure: CIA mouse model was induced in DBA/1J mice (Japan Charles River Breeding Laboratories, Kanagawa, Japan) with 5 to 6 weeks of age. Animals were maintained at a temperature of 20±5° C. and a relative humidity of 40˜60%.
Bovine type II collagen (CII, 2 mg/ml dissolved in 0.05 M acetic acid, Chondrex, Redmond, Wash.) was emulsified in equal volumes of Freund's complete adjuvant (4 mg/ml of Mycobacterium tuberculosis strain H37Ra; Chondrex, Redmond, Wash.). On day 0, mice were immunized intradermally at the base of the tail with 100 μg bovine type II collagen emulsified in Freund's complete adjuvant. On day 21, all mice were boosted with an intraperitoneal injection of 100 μg type II collagen.
All the test substances were administered once daily at 30 mg/kg/day by oral gavage for 3 weeks.
The gradual onset of arthritis usually starts approximately 3 weeks after initial immunization. The progression of CIA was evaluated by the macroscopic scoring of paws at intervals of 3 days. The edema and swelling of each paw was scored visually as was described previously, using a scale of 0-4, where 0=no visible abnormalities, 1=mild redness or swelling of the wrist or up to three inflamed digits, 2=more than three inflamed digits or moderate redness and swelling of the ankle or wrist, 3=severe ankle and wrist inflammation, 4=extensive ankle and wrist inflammation including all digits.
Arthritis was considered to be present if the score was >2. The blind scoring was performed by four independent observers. In this study, data was calculated by following equation.

In assay [4] the target is full-length human SYK (Homo sapiens (Human), UniProt P43405). Kind of assay: Inhibition of enzymatic SYK kinase activity (LANCE Ulight-TK peptide, Eu-antibody, 665 nm emission). The class given is biochemical. To be noted: ATP at Km (15 uM).
For assay [5], the target named is full-length human KDR (VEGFR2) (Homo sapiens (Human), UniProt P35968). Kind of assay: Inhibition of enzymatic KDR kinase activity (LANCE Ulight-JAK1 peptide, Eu-antibody, 665 nm emission). The class given is biochemical. Particulars: ATP at Km (15 uM). A general note: In TR-FRET formats the signal depends on donor and acceptor labels being close together.
full-length human KDR (VEGFR2), sequence (P35968 20-1356): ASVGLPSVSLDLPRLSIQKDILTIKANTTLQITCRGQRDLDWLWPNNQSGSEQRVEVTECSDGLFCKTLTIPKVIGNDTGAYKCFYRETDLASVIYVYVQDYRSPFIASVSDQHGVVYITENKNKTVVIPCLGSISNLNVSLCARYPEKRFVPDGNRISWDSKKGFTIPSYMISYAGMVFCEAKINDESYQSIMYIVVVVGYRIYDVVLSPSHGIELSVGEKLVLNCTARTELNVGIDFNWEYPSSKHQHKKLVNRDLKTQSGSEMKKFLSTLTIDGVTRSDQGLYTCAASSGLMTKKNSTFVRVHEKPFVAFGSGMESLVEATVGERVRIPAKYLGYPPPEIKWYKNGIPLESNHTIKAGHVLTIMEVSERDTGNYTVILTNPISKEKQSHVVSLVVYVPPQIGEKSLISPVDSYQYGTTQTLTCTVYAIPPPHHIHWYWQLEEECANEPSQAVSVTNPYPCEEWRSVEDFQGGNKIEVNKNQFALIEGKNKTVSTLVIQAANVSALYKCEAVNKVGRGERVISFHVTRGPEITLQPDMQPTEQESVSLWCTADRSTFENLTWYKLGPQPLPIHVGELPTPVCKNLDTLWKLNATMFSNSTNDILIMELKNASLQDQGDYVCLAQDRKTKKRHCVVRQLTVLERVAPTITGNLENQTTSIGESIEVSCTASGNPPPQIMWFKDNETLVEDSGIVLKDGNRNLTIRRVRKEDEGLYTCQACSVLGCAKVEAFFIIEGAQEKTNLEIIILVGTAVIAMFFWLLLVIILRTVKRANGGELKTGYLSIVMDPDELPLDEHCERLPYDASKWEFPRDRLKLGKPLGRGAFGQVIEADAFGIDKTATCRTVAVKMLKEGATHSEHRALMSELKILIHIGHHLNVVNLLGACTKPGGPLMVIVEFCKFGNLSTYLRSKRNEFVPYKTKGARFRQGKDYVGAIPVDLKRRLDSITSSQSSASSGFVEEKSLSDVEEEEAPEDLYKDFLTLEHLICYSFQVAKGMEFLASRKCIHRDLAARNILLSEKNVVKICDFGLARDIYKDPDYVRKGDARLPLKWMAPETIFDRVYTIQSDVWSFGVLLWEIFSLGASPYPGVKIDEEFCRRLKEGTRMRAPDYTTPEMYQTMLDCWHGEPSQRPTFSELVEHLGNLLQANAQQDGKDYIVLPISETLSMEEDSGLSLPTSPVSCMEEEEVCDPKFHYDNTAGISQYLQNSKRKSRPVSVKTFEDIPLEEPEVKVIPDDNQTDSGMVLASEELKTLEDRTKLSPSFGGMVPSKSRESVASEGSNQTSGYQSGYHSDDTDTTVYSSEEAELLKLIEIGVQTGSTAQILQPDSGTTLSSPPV

A word on the IC50: it is the point on the concentration scale where inhibition reaches its midpoint. As for `Cc1nn(-c2ccnc(Nc3ccc4c(c3)c(C(=O)C(F)(F)F)cn4C)n2)cc1CN1CC(O)C1` [Compound 151, 2,2,2-Trifluoro-1-(5-(4-(4-((3-hydroxyazetidin-1-yl)methyl)-3-methyl-1H-pyrazol-1-yl)pyrimidin-2-ylamino)-1-methyl-1H-indol-3-yl)ethanone], the IC50 was 20 nM in assay [1] and more than 1000 nM in assay [2] (Homo sapiens).

With `Cc1nn(-c2ccnc(Nc3ccc4c(c3)c(Cl)cn4C)n2)cc1CN1CC(O)C1` [Compound 144, 1-((1-(2-(3-Chloro-1-methyl-1H-indol-5-ylamino)pyrimidin-4-yl)-3-methyl-1H-pyrazol-4-yl)methyl)azetidin-3-ol], in assay [1] (IgG stimulated release), the “Inhibition in SYK dependent TNF-α release assay compared with R406 (in words)” value is reported as “stronger inhibition than R406”. For the same molecule, the IC50 in assay [1] came out at 13 nM; in assay [2] (Homo sapiens), 1140 nM. Besides, in assay [2], the “Inhibition in LPS stimulated TNF-α production (in words)” value is listed as “no inhibition”. Besides, the “Inhibition in arthritis phenotype indicated by CIA compared with R788 (in words)” value in assay [3] was “stronger inhibition”.

Consider `C[C@@H]1C[C@H]2[C@@H]3CCC4=CC(=O)C=C[C@]4(C)[C@@]3(F)[C@@H](O)C[C@]2(C)[C@@]1(O)C(=O)CO` [Dexamethasone], for which the 50% inhibitory concentration (IC50) in assay [2] is 431 nM.

In the case of `Cc1cn(-c2ccnc(Nc3ccc4c(ccn4C)c3)n2)cc1CN1CC(O)C1` [Compound 52, 1-((4-methyl-1-(2-(1-methyl-1H-indol-5-ylamino)pyrimidin-4-yl)-1H-pyrrol-3-yl)methyl)azetidin-3-ol], in assay [4], the midpoint of inhibition, the IC50, lay at 190 nM.

`Cc1nn(-c2ccnc(Nc3ccc4c(c3)c(Cl)c(C)n4C)n2)cc1CN1CC(O)C1` [Compound 141, 1-((1-(2-(3-chloro-1,2-dimethyl-1H-indol-5-ylamino)pyrimidin-4-yl)-3-methyl-1H-pyrazol-4-yl)methyl)azetidin-3-ol]: the “Inhibition in arthritis phenotype indicated by CIA compared with R788 (in words)” value in assay [3] is “stronger inhibition”. This molecule had an IC50 in assay [5] of 192 nM.

Turning to `COc1cc(Nc2ncc(F)c(Nc3ccc4c(n3)N(COP(=O)(O)O)C(=O)C(C)(C)O4)n2)cc(OC)c1OC` [Compound R788], the “CIA index (arthritic score of test group / vehicle group x 100)” value in assay [3] (day 6) turned out to be 41.9 ± 7.5%; in assay [3] (day 9), 49.6 ± 9.4%; in assay [3] (day 12), 68.3 ± 8.6%; in assay [3] (day 15) it was 74.1 ± 7.1%; in assay [3] (day 18), 79.4 ± 10.7%; in assay [3] (day 21) it was 80.1 ± 6.7%.

Regarding `Cc1nn(-c2ccnc(Nc3ccc4c(cnn4C)c3)n2)cc1CN1CC(O)C1` [Compound 160, 1-((3-Methyl-1-(2-(1-methyl-1H-indazol-5-ylamino)pyrimidin-4-yl)-1H-pyrazol-4-yl)methyl)azetidin-3-ol], the results for the IC50 in assay [1] and in assay [2] (Homo sapiens) were 91 nM and 934 nM, respectively.

Regarding `COc1cc(Nc2ncc(F)c(Nc3ccc4c(n3)NC(=O)C(C)(C)O4)n2)cc(OC)c1OC` [Compound R406, reference compound], the IC50 in assay [1] was 171 nM.

Turning to `Cc1nn(-c2ccnc(Nc3ccc4c(c3)c(Cl)c(C)n4C)n2)cc1CN1CC[C@@H](O)C1` [Compound 189, (R)-1-((1-(2-(3-Chloro-1,2-dimethyl-1H-indol-5-ylamino)pyrimidin-4-yl)-3-methyl-1H-pyrazol-4-yl)methyl)pyrrolidin-3-ol], the IC50 was found to be 42 nM in assay [1] and 2800 nM in assay [2] (Homo sapiens).
